From patent publication US20080275095A1, “Combination of Prostaglandin E2 Receptor Antagonists and Renin-Angiotensin System Inhibitors for Treating Renal Diseases” (Astellas Pharma Inc., priority 2004, published 2008)

System: rat uninephrectomized anti-Thy-1 nephritis model
Experiment: Combination effect of captopril and FR233074 on rat uninephrectomized anti-Thy-1 nephritis model
Assay type: in vivo
Details: for elevation in systolic blood pressure: 10 weeks after administration of the antibody, FIG. 9; for elevation in systolic blood pressure / glomerular and tubulointerstitial injury (histological observation): versus control group; for increase in urinary excretion of protein: 24-h urine up to 24 weeks after antibody, captopril 30 mg/kg/day, FR233074 20 mg/kg/day, FIG. 3; for time from the disease induction to the renal death (time point for 1/Cr=0.1): linear extrapolation from averaged 1/Cr and 1/Cr slope, FIG. 8; for rate of decline in renal function (1/Cr slope): single agents versus control, combination versus each agent alone, FIG. 7; for glomerular and tubulointerstitial injury (histological observation): FIG. 12-13
Method: Male Wistar rats (6-weeks old) were used for the example. These Wistar rats were anesthetized by administration of pentobarbital and subjected to unilateral nephrectomy. Two weeks later, these rats were injected with anti-Thy-1 antibody (gift of Department of Cell Biology, Institute of Nephrology, Niigata University Graduate School of Medical and Dental Sciences, Japan) from tail vein of them to induce anti-Thy-1 nephritis. Normal group were subjected to only ventrotomy without unilateral nephrectomy and injected with saline instead of anti-Thy-1 antibody.
One week after administration of the antibody, the rats were weighted, blood of the rats were collected (0.55 ml from subclavian vein), and 24-h urine collections were performed. Then, these rats were divided into the groups based on body weight, renal function parameters (BUN (blood urea nitrogen) and serum creatinine) and urinary excretion of protein.
The agents were administered to the rats for 23 weeks from the day of the grouping. 2, 4, 6, 8, 12, 16, 20 and 24 weeks after administration of the antibody (at 24 weeks after administration of the antibody, the administration of the agents was finished), the rats were weighted, blood of the rats were collected, 24-h urine collections were performed, and then, body weight, renal function parameters and urinary excretion of protein of the rats were determined. Systemic blood pressure of each rat was also measured at 10 weeks after administration of the antibody.
An averaged value of 1/Cr in each group at one week after disease induction was plotted, and drew down linearly, based on an averaged value of 1/Cr slope in each group. A time point for 1/Cr=0.1 was calculated, and defined as time reaching renal death (time point for 1/Cr=0.1 is one of standards for introducing dialytic therapy in clinical practice).

Compound	elevation in systolic blood pressure	increase in urinary excretion of protein	time from the disease induction to the renal death (time point for 1/Cr=0.1)	rate of decline in renal function (1/Cr slope)	glomerular and tubulointerstitial injury (histological observation)
O=C(NS(=O)(=O)Cc1ccccc1)c1cccc(C[C@@H]2CCCC=C2c2nc(-c3ccccc3)c(-c3ccccc3)o2)c1 [FR233074, N-benzylsulfonyl-3-{[(1S)-2-(4,5-diphenyloxazol-2-yl)-2-cyclohexen-1-yl]methyl}benzamide]	no significant effect	suppressed	prolonged	decreased	extent of damage was reduced
C[C@H](CS)C(=O)N1CCC[C@H]1C(=O)O [captopril]	suppressed	suppressed	prolonged	decreased	extent of damage was reduced
